Tested on: 596521-263-R-J1-PDC complex spheroid growth
Assay: Anticancer human tumor 596521-263-R-J1-PDC patient-derived soft tissue sarcoma cell line growth inhibition [Asc]
Details: for IC50: curve of first compound; for viability, T/C: stronger effect = lower value
In short: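 Stromal components (HUVEC and hMSC) are co-assembled with the cancer cells into multicellular spheroids. Drugs are then added singly or paired, at concentrations falling by half-log increments from a clinically achievable maximum, capped at 10 microM without known Cmax.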
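Further: spheroids exposed to compounds for 7 days.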

SMILES: CCN1CCN(Cc2ccc(Nc3ncc(F)c(-c4cc(F)c5nc(C)n(C(C)C)c5c4)n3)nc2)CC1 + Cc1c(S(C)(=O)=O)c(-c2cc(F)cc(N3CCN(c4ccc(NS(=O)(=O)c5ccc(NC(CCN6CCC(C(=O)OCCCP(=O)(O)O)CC6)CSc6ccccc6)c(S(=O)(=O)C(F)(F)F)c5)cc4)CC3)c2)c(-c2ccc(Cl)cc2)n1C(C)C
- IC50 (second compound 0.0316 µM): > 1000 nM
- IC50 (second compound 0.1 µM): > 1000 nM
- IC50 (second compound 0.316 µM): > 1000 nM
- IC50 (second compound 1 µM): > 1000 nM
- IC50 (second compound 3.16 µM): > 1000 nM
- IC50 (second compound 10 µM): > 1000 nM
- viability, T/C (second compound 0.0316 µM, first compound 0.00316 µM): 94.2%
- viability, T/C (second compound 0.0316 µM, first compound 0.01 µM): 95.2%
- viability, T/C (second compound 0.0316 µM, first compound 0.0316 µM): 92%
- viability, T/C (second compound 0.0316 µM, first compound 0.1 µM): 84.3%
- viability, T/C (second compound 0.0316 µM, first compound 0.316 µM): 91.4%
- viability, T/C (second compound 0.0316 µM, first compound 1 µM): 97%
- viability, T/C (second compound 0.1 µM, first compound 0.00316 µM): 93.7%
- viability, T/C (second compound 0.1 µM, first compound 0.01 µM): 91.5%
- viability, T/C (second compound 0.1 µM, first compound 0.0316 µM): 94.1%
- viability, T/C (second compound 0.1 µM, first compound 0.1 µM): 81.1%
- viability, T/C (second compound 0.1 µM, first compound 0.316 µM): 88.7%
- viability, T/C (second compound 0.1 µM, first compound 1 µM): 82%
- viability, T/C (second compound 0.316 µM, first compound 0.00316 µM): 102%
- viability, T/C (second compound 0.316 µM, first compound 0.01 µM): 79%
- viability, T/C (second compound 0.316 µM, first compound 0.0316 µM): 77.8%
- viability, T/C (second compound 0.316 µM, first compound 0.1 µM): 75.7%
- viability, T/C (second compound 0.316 µM, first compound 0.316 µM): 75.3%
- viability, T/C (second compound 0.316 µM, first compound 1 µM): 83.8%
- viability, T/C (second compound 1 µM, first compound 0.00316 µM): 83%
- viability, T/C (second compound 1 µM, first compound 0.01 µM): 73.9%
- viability, T/C (second compound 1 µM, first compound 0.0316 µM): 78.5%
- viability, T/C (second compound 1 µM, first compound 0.1 µM): 70.5%
- viability, T/C (second compound 1 µM, first compound 0.316 µM): 87.7%
- viability, T/C (second compound 1 µM, first compound 1 µM): 67.1%
- viability, T/C (second compound 3.16 µM, first compound 0.00316 µM): 68.1%
- viability, T/C (second compound 3.16 µM, first compound 0.01 µM): 69.6%
- viability, T/C (second compound 3.16 µM, first compound 0.0316 µM): 63.3%
- viability, T/C (second compound 3.16 µM, first compound 0.1 µM): 59.6%
- viability, T/C (second compound 3.16 µM, first compound 0.316 µM): 66.8%
- viability, T/C (second compound 3.16 µM, first compound 1 µM): 66.4%
- viability, T/C (second compound 10 µM, first compound 0.00316 µM): 58.1%
- viability, T/C (second compound 10 µM, first compound 0.01 µM): 57.1%
- viability, T/C (second compound 10 µM, first compound 0.0316 µM): 56%
- viability, T/C (second compound 10 µM, first compound 0.1 µM): 54.8%
- viability, T/C (second compound 10 µM, first compound 0.316 µM): 57%
- viability, T/C (second compound 10 µM, first compound 1 µM): 55.1%

— PubChem BioAssay AID1963449 (Molecular Pharmacology Branch, DTP, NCI, 2024)
